Laboratory results as given in ChEMBL document CHEMBL1201862, “PubChem BioAssay data set” (2004).
Active and inactive are the calls of the source. Rule as the data show it: actives have a measured IC50 and inactives only a lower limit.

Target: Envelope glycoprotein gp160 (Human immunodeficiency virus 1, UniProt Q6QLK5)
Test: cell-free HIV fusion peptide-binding blockers – biochemical, uHTS, fluorescence dequenching, […] (AID 1986)

Chain of Envelope glycoprotein gp160 (Q6QLK5 whole entry, the tested form may be a part): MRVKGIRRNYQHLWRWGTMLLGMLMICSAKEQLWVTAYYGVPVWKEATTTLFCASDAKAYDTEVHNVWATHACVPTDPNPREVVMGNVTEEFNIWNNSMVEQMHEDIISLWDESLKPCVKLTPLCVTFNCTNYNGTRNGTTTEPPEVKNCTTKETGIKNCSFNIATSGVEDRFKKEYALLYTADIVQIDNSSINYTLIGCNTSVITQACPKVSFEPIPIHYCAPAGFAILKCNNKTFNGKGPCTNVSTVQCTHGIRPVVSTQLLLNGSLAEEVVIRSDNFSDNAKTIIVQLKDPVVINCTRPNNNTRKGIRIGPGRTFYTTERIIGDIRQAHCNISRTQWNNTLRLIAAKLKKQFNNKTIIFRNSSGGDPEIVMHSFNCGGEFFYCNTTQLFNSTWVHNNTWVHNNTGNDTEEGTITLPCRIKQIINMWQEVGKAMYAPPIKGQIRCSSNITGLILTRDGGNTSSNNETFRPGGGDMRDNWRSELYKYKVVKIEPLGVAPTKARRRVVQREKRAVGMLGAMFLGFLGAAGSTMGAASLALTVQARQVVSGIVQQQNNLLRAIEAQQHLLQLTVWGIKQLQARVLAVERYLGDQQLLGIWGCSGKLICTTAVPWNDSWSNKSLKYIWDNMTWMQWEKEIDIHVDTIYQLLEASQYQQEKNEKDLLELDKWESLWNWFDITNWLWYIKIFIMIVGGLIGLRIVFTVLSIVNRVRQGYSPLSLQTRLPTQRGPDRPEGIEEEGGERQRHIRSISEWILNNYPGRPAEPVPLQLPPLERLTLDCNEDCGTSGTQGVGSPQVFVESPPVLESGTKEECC

| Structure (SMILES) | IC50 |
| --- | --- |
| O=C(N/N=C/c1cc(Cl)cc([N+](=O)[O-])c1O)c1ccccc1NS(=O)(=O)c1cccs1 | 13.6 µM (active) |
| COc1cc(OC)c2c(O)c3c(c(-c4c5c(c(O)c6c(OC)cc(OC)cc46)CO[C@@H](C)[C@H]5O)c2c1)[C@H](O)[C@H](C)OC3 | 10.1 µM (active) |
